Experimental data: publication PMC5018819 (Scientific Reports, 2016)
Where two headings read alike, the source gives them in different places.

Assays:
[1] = test system: P. falciparum 3D7; experiment: microscopy of tightly synchronized asexual blood stage culture; format: cell-based, Plasmodium falciparum; conditions: EC90; synchronized ring stage parasites 6–12 hours post invasion
Experimental: P. falciparum 3D7 was cultured according to standard methods, and a 6 hours window was achieved by a combination of Percoll and sorbitol synchronizations. Briefly, schizonts and late trophozoites were isolated from earlier stages according to their density by centrifugation on a continuous gradient of 60% Percoll. The resulting schizonts were allowed to invade uninfected red blood cells for 6 hours and newly infected red blood cells were subjected to a 5% sorbitol treatment for 10 minutes at 37 °C. […] Thin blood smears were Giemsa stained every 6 hours until an entire intraerythrocytic cycle was completed.

[2] = molecular target: T1, HsCKα1 (Homo sapiens, UniProt P35790); experiment: IC50 determination, spectrophotometric CK/EK enzyme assay; format: biochemical; conditions: 0.5 mM each substrate
T1 construct: made in house
T1 sequence (P35790 whole entry): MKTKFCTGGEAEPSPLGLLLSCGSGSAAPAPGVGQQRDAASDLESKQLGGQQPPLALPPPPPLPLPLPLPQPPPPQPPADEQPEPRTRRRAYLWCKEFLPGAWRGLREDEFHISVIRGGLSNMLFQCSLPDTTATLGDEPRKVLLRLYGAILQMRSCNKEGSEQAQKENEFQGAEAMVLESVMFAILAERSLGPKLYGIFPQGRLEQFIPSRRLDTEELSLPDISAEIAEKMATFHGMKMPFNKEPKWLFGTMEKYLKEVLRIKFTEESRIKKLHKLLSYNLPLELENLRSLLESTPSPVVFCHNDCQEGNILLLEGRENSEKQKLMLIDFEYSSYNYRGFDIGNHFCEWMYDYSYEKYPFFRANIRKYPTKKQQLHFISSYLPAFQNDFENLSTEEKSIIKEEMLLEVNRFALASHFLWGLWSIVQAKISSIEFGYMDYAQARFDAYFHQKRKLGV
Experimental: (§1) A continuous spectrophotometric 96-well plate assay was established for CK and EK activity based on an assay described. […] The reaction was initiated by addition of enzyme or substrate, as appropriate, and the rate of reaction was monitored by following the decrease in absorbance at 341 nm for 10 min at room temperature using a Thermo Multiska spectrophotometer. Experiments were carried out to ensure that coupling enzymes were not rate-limiting under any of the conditions used and control experiments lacking substrates and/or enzyme were carried out to correct for any background rate.
(§2) The enzyme was pre-incubated for 5 min with varying concentrations of inhibitor prior to reaction being started by addition of 0.5 mM each substrate. The IC50 values were estimated using Grafit 5 (Erithacus Software Ltd).

[3] = molecular target: T2, PfCK (Plasmodium falciparum, UniProt Q8IM71); experiment: as above; format: biochemical; conditions: for IC50: 0.5 mM each substrate
T2 construct: made in house
T2 sequence (Q8IM71 1-440): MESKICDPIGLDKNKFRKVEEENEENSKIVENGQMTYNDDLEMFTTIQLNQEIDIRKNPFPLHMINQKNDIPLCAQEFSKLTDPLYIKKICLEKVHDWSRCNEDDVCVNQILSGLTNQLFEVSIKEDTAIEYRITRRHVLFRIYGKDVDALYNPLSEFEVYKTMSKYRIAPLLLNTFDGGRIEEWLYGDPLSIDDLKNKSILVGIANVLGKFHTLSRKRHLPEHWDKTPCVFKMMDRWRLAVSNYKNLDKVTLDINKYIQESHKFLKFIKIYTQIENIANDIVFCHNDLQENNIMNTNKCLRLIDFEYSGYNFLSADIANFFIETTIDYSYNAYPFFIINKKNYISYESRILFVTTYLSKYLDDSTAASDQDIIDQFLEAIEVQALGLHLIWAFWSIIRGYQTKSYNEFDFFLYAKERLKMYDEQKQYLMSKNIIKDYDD
Experimental: as §1, §2

[4] = molecular target: T3, PfEK (Plasmodium falciparum, UniProt Q8IIB7); experiment: IC50 determination, spectrophotometric EK enzyme assay; format: biochemical, P. falciparum; conditions: for IC50: Etn as substrate, 0.5 mM each substrate
T3 sequence (Q8IIB7 2-420): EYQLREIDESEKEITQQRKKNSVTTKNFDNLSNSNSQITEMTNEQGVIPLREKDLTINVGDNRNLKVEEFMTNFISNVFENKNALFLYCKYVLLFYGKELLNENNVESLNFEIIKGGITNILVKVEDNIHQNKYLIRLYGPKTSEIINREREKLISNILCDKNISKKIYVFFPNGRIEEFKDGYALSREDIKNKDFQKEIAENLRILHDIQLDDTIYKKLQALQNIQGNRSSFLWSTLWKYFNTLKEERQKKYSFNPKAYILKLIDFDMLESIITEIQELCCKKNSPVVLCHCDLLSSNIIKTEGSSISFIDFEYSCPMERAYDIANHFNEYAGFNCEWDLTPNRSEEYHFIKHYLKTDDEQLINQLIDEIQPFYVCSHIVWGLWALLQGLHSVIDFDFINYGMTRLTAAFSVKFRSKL
Experimental: as §1, §2

[5] = Etn as substrate, read-out: IC50 HsCK, Etn
[6] = read-out: IC50 HsCK, Cho, Cho as substrate
[7] = Etn as substrate, read-out: IC50 PfCK, Etn
[8] = read-out: IC50 PfCK, Cho, Cho as substrate

SMILES	effect on parasite development [1]	IC50 [2, 5] [µM]	IC50 [2, 6] [µM]	inhibition towards PfCKs choline kinase activity (in words) ([3]; Cho as substrate)	IC50 [3, 7] [µM]	IC50 [3, 8] [µM]	inhibition towards PfEK (in words) [4]	IC50 [4] [µM]
CN(C)c1cc[n+](Cc2ccc(-c3ccc(C[n+]4ccc(N5CCCC5)cc4)cc3)cc2)cc1.[Br-].[Br-] [BR23]	arrest of parasite development	0.23	0.58	moderate inhibition	12	276	neither BR23 nor BR25 showed any inhibition	> 500
CN(C)c1cc[n+](Cc2ccc(CCCCc3ccc(C[n+]4ccc(N5CCCC5)cc4)cc3)cc2)cc1.[Br-].[Br-] [BR25]	arrest of parasite development	0.18	0.56	moderate inhibition	6	103	neither BR23 nor BR25 showed any inhibition	> 500
